According to patent US6914045B2, “Glycopeptide antibiotics” (Wyeth Holdings Corporation, priority 2001, dated 2005):
≈ marks a conversion by molar mass, not a printed value.

Columns and labels:
Assay in all cases: in vitro antibacterial evaluation, MIC by broth dilution
Assay type in all cases: cell-based
Enterococcus sp. = conditions: broth dilution, 18 hours at 35° C.
Summary of the method: (§1)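 Following National Committee for Clinical Laboratory Standards recommendations (M7-A2), susceptibility was measured by dilution in Muller-Hinton II […]. Bacteria were seeded at 5×10^5 CFU/mL against compound concentrations from 64 down to 0.06 μg/mL.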

Escherichia coli = conditions: 18 hours at 35° C., strain ATCC 25922
Summary of the method: as §1

Staphylococcus sp. = conditions: broth dilution, 18 hours at 35° C.
Summary of the method: as §1

Streptococcus sp. = conditions: broth dilution, 18 hours at 35° C.
Summary of the method: as §1

CC(c1ccccc1)C1NC(=O)CNC(=O)C(CO)NC(=O)C(C(O)C2CNC(=N)N2C2OC(CO)C(O)C(O)C2O)NC(=O)C(C(O)C2CNC(=N)N2)NC(=O)C(Cc2ccc(OC3OC(CO)C(OC4OC5COC(CC(C)(C)C)OC5C(O)C4O)C(O)C3O)cc2)NC1=O (stereo not drawn) [Example 110, Cyclo[glycyl-β-methylphenylalanyl-O-[4-O-[4,6-O-(3,3-dimethylbutylidene)hexopyranosyl]-hexopyranosyl]tyrosyl-3-(2-iminoimidazolidin-4-yl)seryl-3-(3-hexopyranosyl-2-iminoimidazolidin-4-yl)serylseryl]]
MIC Enterococcus avium (GC 4558) (Enterococcus sp.; Enterococcus avium (GC 4558)): 4 mg/L (≈ 2.9 µM)
MIC Enterococcus faecalis (ATCC 29212) (Enterococcus sp.; Enterococcus faecalis (ATCC 29212)): 4 mg/L (≈ 2.9 µM)
MIC Enterococcus faecalis (GC 2242) (Enterococcus sp.; Enterococcus faecalis (GC 2242)): 2 mg/L (≈ 1.45 µM)
MIC Enterococcus faecalis (GC 4552) (Enterococcus sp.; Enterococcus faecalis (GC 4552)): 4 mg/L (≈ 2.9 µM)
MIC Enterococcus faecalis (GC 4553) (Enterococcus sp.; Enterococcus faecalis (GC 4553)): 4 mg/L (≈ 2.9 µM)
MIC Enterococcus faecalis (GC 4554) (Enterococcus sp.; Enterococcus faecalis (GC 4554)): 2 mg/L (≈ 1.45 µM)
MIC Enterococcus faecium (GC 2243) (Enterococcus sp.; Enterococcus faecium (GC 2243)): 4 mg/L (≈ 2.9 µM)
MIC Enterococcus faecium (GC 4556) (Enterococcus sp.; Enterococcus faecium (GC 4556)): 2 mg/L (≈ 1.45 µM)
MIC Enterococcus faecium (GC 4557) (Enterococcus sp.; Enterococcus faecium (GC 4557)): 2 mg/L (≈ 1.45 µM)
MIC Enterococcus faecalis (ATCC 29212) (Enterococcus sp.; strain ATCC 29212): 4 mg/L (≈ 2.9 µM)
MIC Enterococcus faecalis (GC 2242) (Enterococcus sp.; strain GC 2242): 2 mg/L (≈ 1.45 µM)
MIC Enterococcus faecium (GC 2243) (Enterococcus sp.; strain GC 2243): 4 mg/L (≈ 2.9 µM)
MIC Enterococcus faecalis (GC 4552) (Enterococcus sp.; strain GC 4552): 4 mg/L (≈ 2.9 µM)
MIC Enterococcus faecalis (GC 4553) (Enterococcus sp.; strain GC 4553): 4 mg/L (≈ 2.9 µM)
MIC Enterococcus faecalis (GC 4554) (Enterococcus sp.; strain GC 4554): 2 mg/L (≈ 1.45 µM)
MIC Enterococcus faecium (GC 4556) (Enterococcus sp.; strain GC 4556): 2 mg/L (≈ 1.45 µM)
MIC Enterococcus faecium (GC 4557) (Enterococcus sp.; strain GC 4557): 2 mg/L (≈ 1.45 µM)
MIC Enterococcus avium (GC 4558) (Enterococcus sp.; strain GC 4558): 4 mg/L (≈ 2.9 µM)
MIC Escherichia coli (ATCC 25922) (Escherichia coli): 64 mg/L (≈ 46.5 µM)
MIC Coagulase Negative Staphylococcus (GC 4547) (Staphylococcus sp.): 1 mg/L (≈ 0.726 µM)
MIC Coagulase Negative Staphylococcus (GC 4548) (Staphylococcus sp.): 1 mg/L (≈ 0.726 µM)
MIC Coagulase Negative Staphylococcus (GC 4549) (Staphylococcus sp.): 1 mg/L (≈ 0.726 µM)
MIC Coagulase Negative Staphylococcus (GC 4551) (Staphylococcus sp.): 1 mg/L (≈ 0.726 µM)
MIC Coagulase Negative Staphylococcus (ID-3941) (Staphylococcus sp.): 1 mg/L (≈ 0.726 µM)
MIC Staphylococcus aureus (ATCC 29213) (Staphylococcus sp.): 1 mg/L (≈ 0.726 µM)
MIC Staphylococcus aureus (GC 1131) (Staphylococcus sp.): 1 mg/L (≈ 0.726 µM)
MIC Staphylococcus aureus (GC 4541) (Staphylococcus sp.): 1 mg/L (≈ 0.726 µM)
MIC Staphylococcus aureus (GC 4542) (Staphylococcus sp.): 1 mg/L (≈ 0.726 µM)
MIC Staphylococcus aureus (GC 4544) (Staphylococcus sp.): 2 mg/L (≈ 1.45 µM)
MIC Staphylococcus aureus (GC 4545) (Staphylococcus sp.): 1 mg/L (≈ 0.726 µM)
MIC Staphylococcus aureus-SMITH (GC 4543) (Staphylococcus sp.): 1 mg/L (≈ 0.726 µM)
MIC Staphylococcus haemolyticus (GC 4546) (Staphylococcus sp.): 1 mg/L (≈ 0.726 µM)
MIC Staphylococcus aureus (GC 1131) (Staphylococcus sp.; inoculum 5×10^5 CFU/mL, strain GC 1131): 1 mg/L (≈ 0.726 µM)
MIC Staphylococcus aureus (ATCC 29213) (Staphylococcus sp.; strain ATCC 29213): 1 mg/L (≈ 0.726 µM)
MIC Staphylococcus aureus (GC 4541) (Staphylococcus sp.; strain GC 4541): 1 mg/L (≈ 0.726 µM)
MIC Staphylococcus aureus (GC 4542) (Staphylococcus sp.; strain GC 4542): 1 mg/L (≈ 0.726 µM)
MIC Staphylococcus aureus (GC 4544) (Staphylococcus sp.; strain GC 4544): 2 mg/L (≈ 1.45 µM)
MIC Staphylococcus aureus (GC 4545) (Staphylococcus sp.; strain GC 4545): 1 mg/L (≈ 0.726 µM)
MIC Staphylococcus haemolyticus (GC 4546) (Staphylococcus sp.; strain GC 4546): 1 mg/L (≈ 0.726 µM)
MIC Coagulase Negative Staphylococcus (GC 4547) (Staphylococcus sp.; strain GC 4547): 1 mg/L (≈ 0.726 µM)
MIC Coagulase Negative Staphylococcus (GC 4548) (Staphylococcus sp.; strain GC 4548): 1 mg/L (≈ 0.726 µM)
MIC Coagulase Negative Staphylococcus (GC 4549) (Staphylococcus sp.; strain GC 4549): 1 mg/L (≈ 0.726 µM)
MIC Coagulase Negative Staphylococcus (GC 4551) (Staphylococcus sp.; strain GC 4551): 1 mg/L (≈ 0.726 µM)
MIC Coagulase Negative Staphylococcus (ID-3941) (Staphylococcus sp.; strain ID-3941): 1 mg/L (≈ 0.726 µM)
MIC Staphylococcus aureus-SMITH (GC 4543) (Staphylococcus sp.; strain SMITH GC 4543): 1 mg/L (≈ 0.726 µM)
MIC Streptococcus agalactiae (GC 4564) (Streptococcus sp.; Streptococcus agalactiae (GC 4564)): <0.5 mg/L
MIC Streptococcus pneumoniae (GC 4565) (Streptococcus sp.; Streptococcus pneumoniae (GC 4565)): <0.5 mg/L
MIC Streptococcus pyogenes (ID-3187) (Streptococcus sp.; Streptococcus pyogenes (ID-3187)): <0.5 mg/L
MIC Streptococcus agalactiae (GC 4564) (Streptococcus sp.; strain GC 4564): <0.5 mg/L
MIC Streptococcus pneumoniae (GC 4565) (Streptococcus sp.; strain GC 4565): <0.5 mg/L
MIC Streptococcus pyogenes (ID-3187) (Streptococcus sp.; strain ID-3187): <0.5 mg/L
